Experimental data published in US9707305B2, “Formulas for diagnosing and treating hormone-dependent cancers and cancers of the organs responsible for steroid hormone synthesis” (Commissariat à l'énergie atomique et aux énergies …, priority 2011, dated 2017).

Key:
[1] = Biodistribution of the mixture of three free tracers (not formulated as nano-emulsion), comparative; format: in vivo; details: FVB female mouse
Protocol: (§1) In the following examples, the radioactivity was counted with the TRiCarb Counter (Ref: Packard, Liquid Scintillation Analyzers; Models 2200CA).
(§2) Fluobeam 700 (Fluoptics) is the apparatus with which the whole of the organs from the biodistribution were analyzed in fluorescence as well as the one with which the biodistribution kinetics of the nano-emulsions were established in vivo. This imaging system allows viewing of the fluorescence in spectral bands from 700 to 850 nm for a 650 nm excitation. The apparatus consists of an electric case containing the laser of class 3B, its power supply and an optical head containing the CCD camera.
As a comparison, a mixture of three tracers ([3H]CHE, [14C]CO and DiD) (not formulated as a nano-emulsion) was injected in order to observe the distribution of the tracers in the absence of droplets being used as a distribution carrier.

[2] = Biodistribution of the nano-emulsion of Example 1.1 in male mice (Tables 15 to 21); format: in vivo; details: FVB male mouse
Protocol: as §1
as §2, with “camera. […]” for “camera.”

[3] = 2 h after injection of free tracers (not nano-emulsion)
[4] = 6 h after injection of free tracers (not nano-emulsion)
[5] = 16 h after injection of free tracers (not nano-emulsion)
[6] = 24 h after injection of free tracers (not nano-emulsion)

Question: What does the source list for `CCCCCCCCCCCCCCCCO[C@H]1CC[C@@]2(C)C(=CC[C@H]3[C@@H]4CC[C@H]([C@H](C)CCCC(C)C)[C@@]4(C)CC[C@@H]32)C1` [[3H]CHE, cholesteryl hexadecylether]?
Answer: biodistribution, Adrenal glands (MEAN) [1, 3]: 0.17 % of injected dose per gram of; biodistribution, Brain (MEAN) [1, 3]: 0.00 % of injected dose per gram of; biodistribution, Fat (MEAN) [1, 3]: 0.02 % of injected dose per gram of; biodistribution, Heart (MEAN) [1, 3]: 0.08 % of injected dose per gram of; biodistribution, Intestine (MEAN) [1, 3]: 0.03 % of injected dose per gram of; biodistribution, Kidney (MEAN) [1, 3]: 0.09 % of injected dose per gram of; biodistribution, Liver (MEAN) [1, 3]: 1.76 % of injected dose per gram of; biodistribution, Lung (MEAN) [1, 3]: 29.10 % of injected dose per gram of; biodistribution, Muscle (MEAN) [1, 3]: 0.04 % of injected dose per gram of; biodistribution, Ovary (MEAN) [1, 3]: 0.04 % of injected dose per gram of; biodistribution, Pancreas (MEAN) [1, 3]: 0.05 % of injected dose per gram of; biodistribution, Salivary gland (MEAN) [1, 3]: 0.01 % of injected dose per gram of; biodistribution, Spleen (MEAN) [1, 3]: 1.55 % of injected dose per gram of; biodistribution, Uterus (MEAN) [1, 3]: 0.02 % of injected dose per gram of; biodistribution, Adrenal glands (MEAN) [1, 4]: 0.36 % of injected dose per gram of; biodistribution, Brain (MEAN) [1, 4]: 0.02 % of injected dose per gram of; biodistribution, Fat (MEAN) [1, 4]: 0.05 % of injected dose per gram of; biodistribution, Heart (MEAN) [1, 4]: 0.30 % of injected dose per gram of; biodistribution, Intestine (MEAN) [1, 4]: 0.15 % of injected dose per gram of; biodistribution, Kidney (MEAN) [1, 4]: 0.41 % of injected dose per gram of; biodistribution, Liver (MEAN) [1, 4]: 3.23 % of injected dose per gram of; biodistribution, Lung (MEAN) [1, 4]: 83.99 % of injected dose per gram of; biodistribution, Muscle (MEAN) [1, 4]: 0.03 % of injected dose per gram of; biodistribution, Ovary (MEAN) [1, 4]: 0.07 % of injected dose per gram of; biodistribution, Pancreas (MEAN) [1, 4]: 0.09 % of injected dose per gram of; biodistribution, Salivary gland (MEAN) [1, 4]: 0.09 % of injected dose per gram of; biodistribution, Uterus (MEAN) [1, 4]: 0.04 % of injected dose per gram of; biodistribution, Adrenal gland (MEAN) [1, 5]: 0.47 % of injected dose per gram of; biodistribution, Brain (MEAN) [1, 5]: 0.02 % of injected dose per gram of; biodistribution, Fat (MEAN) [1, 5]: 0.02 % of injected dose per gram of; biodistribution, Heart (MEAN) [1, 5]: 0.35 % of injected dose per gram of; biodistribution, Intestine (MEAN) [1, 5]: 0.13 % of injected dose per gram of; biodistribution, Kidney (MEAN) [1, 5]: 0.53 % of injected dose per gram of; biodistribution, Liver (MEAN) [1, 5]: 6.95 % of injected dose per gram of; biodistribution, Lung (MEAN) [1, 5]: 124.35 % of injected dose per gram of; biodistribution, Muscle (MEAN) [1, 5]: 0.05 % of injected dose per gram of; biodistribution, Ovary (MEAN) [1, 5]: 0.19 % of injected dose per gram of; biodistribution, Pancreas (MEAN) [1, 5]: 0.04 % of injected dose per gram of; biodistribution, Salivary gland (MEAN) [1, 5]: 0.05 % of injected dose per gram of; biodistribution, Spleen (MEAN) [1, 5]: 4.17 % of injected dose per gram of; biodistribution, Uterus (MEAN) [1, 5]: 0.03 % of injected dose per gram of; biodistribution, Adrenal gland (MEAN) [1, 6]: 0.31 % of injected dose per gram of; biodistribution, Brain (MEAN) [1, 6]: 0.03 % of injected dose per gram of; biodistribution, Fat (MEAN) [1, 6]: 1.42 % of injected dose per gram of; biodistribution, Heart (MEAN) [1, 6]: 0.12 % of injected dose per gram of; biodistribution, Intestine (MEAN) [1, 6]: 0.07 % of injected dose per gram of; biodistribution, Kidney (MEAN) [1, 6]: 1.12 % of injected dose per gram of; biodistribution, Liver (MEAN) [1, 6]: 1.12 % of injected dose per gram of; biodistribution, Lung (MEAN) [1, 6]: 6.37 % of injected dose per gram of; biodistribution, Muscle (MEAN) [1, 6]: 0.11 % of injected dose per gram of; biodistribution, Ovary (MEAN) [1, 6]: 0.08 % of injected dose per gram of; biodistribution, Pancreas (MEAN) [1, 6]: 0.03 % of injected dose per gram of; biodistribution, Salivary gland (MEAN) [1, 6]: 0.14 % of injected dose per gram of; biodistribution, Spleen (MEAN) [1, 6]: 10.63 % of injected dose per gram of; biodistribution, Uterus (MEAN) [1, 6]: 0.34 % of injected dose per gram of; accumulation of the free radioactive tracers in the lungs ([1]; Tables 2 to 5 (2 to 24 h), free tracers): strong accumulation; tracer in Adrenal gland ([2]; 2 h): 10.16 percentage of the dose injected per gram of tissue; tracer in Adrenal gland ([2]; 4 h): 16.96 percentage of the dose injected per gram of tissue; tracer in Adrenal gland ([2]; 6 h): 13.399 percentage of the dose injected per gram of tissue; tracer in Adrenal gland ([2]; 16 h): 32.89 percentage of the dose injected per gram of tissue; tracer in Adrenal gland ([2]; 24 h): 17.41 percentage of the dose injected per gram of tissue; tracer in Adrenal gland ([2]; 48 h): 25.12 percentage of the dose injected per gram of tissue; tracer in Adrenal gland ([2]; 72 h): 46.41 percentage of the dose injected per gram of tissue; tracer in Brain ([2]; 2 h): 0.35 percentage of the dose injected per gram of tissue; tracer in Brain ([2]; 4 h): 0.23 percentage of the dose injected per gram of tissue; tracer in Brain ([2]; 6 h): 0.24 percentage of the dose injected per gram of tissue; tracer in Brain ([2]; 16 h): 0.18 percentage of the dose injected per gram of tissue; tracer in Brain ([2]; 24 h): 0.11 percentage of the dose injected per gram of tissue; tracer in Brain ([2]; 48 h): 0.10 percentage of the dose injected per gram of tissue; tracer in Brain ([2]; 72 h): 0.11 percentage of the dose injected per gram of tissue; tracer in Fat ([2]; 2 h): 1.14 percentage of the dose injected per gram of tissue; tracer in Fat ([2]; 4 h): 0.74 percentage of the dose injected per gram of tissue; tracer in Fat ([2]; 6 h): 1.234 percentage of the dose injected per gram of tissue; tracer in Fat ([2]; 16 h): 1.70 percentage of the dose injected per gram of tissue; tracer in Fat ([2]; 24 h): 0.83 percentage of the dose injected per gram of tissue; tracer in Fat ([2]; 48 h): 0.94 percentage of the dose injected per gram of tissue; tracer in Fat ([2]; 72 h): 0.70 percentage of the dose injected per gram of tissue
